# Tests used:
# [1] = Rhodium concentration in the extraction solution phase after extraction, with and without sodium carboxylate salt; type: physicochemical; conditions: for Rh Conc.: extraction solution phase
# Procedure: Each experiment employed an extraction temperature of 50° C., an agitation period of 30 minutes and a phase separation period of 5 minutes followed by sampling of the extraction solution phase. One mL aliquots of the lower, extraction solution phase was sampled for Rh analysis.
# The results of these experiments are shown in Table IV wherein Na Conc. and Rh Conc. are the sodium [Na] and rhodium [Rh] concentrations in mg/L in the extraction solution phase. Also set forth in Table IV are the partition coefficients obtained for the C9-enal isomers, C10-dial isomers and the p diisopropylbenzene hydroformylation solvent (H.S.) in each example.
# […] […] The extractions were carried out at 50° C. using 62 mL of each hydroformylation product solution and 50 mL of an extraction mixture consisting of a 3:1 volume ratio of methanol and water.
# Each extraction employed an agitation period of 30 minutes and a phase separation period of 5 minutes followed by sampling of the extraction solution phase. One mL aliquots of the lower, extraction solution phase was sampled for Rh analysis. […]
# [2] = Extraction and back-extraction with p-diisopropylbenzene or 1,7-octadiene: rhodium concentration in both phases, composition of extraction solution; type: physicochemical
# Procedure: Examples […] illustrate yet another embodiment of the process of the present invention wherein extraction solution containing dissolved rhodium is back-extracted with either hydroformylation solvent or olefinic feedstock to reduce the concentration of rhodium in the extraction solution.
# The general procedure described in Examples 31-48 was used to extract 60.5 mL of hydroformylation product solution obtained by the hydroformylation of 1,7 octadiene in the presence of a catalyst system comprising rhodium and BISBI phosphine (Reference Example 9). […] The extraction flask was charged with the hydroformylation product solution, 37 mL methanol, 12 mL water and […] [Na] provided as sodium oleate.
# For Example 88, the extraction mixture was stirred at room temperature for 30 minutes and then drained into a calibrated, addition funnel and allowed to stand for about five minutes to permit phase separation. The volume of the hydroformylation product solution (organic) phase was 45 mL and the volume of the extraction solution phase was 65 ml. Samples of each phase were taken for rhodium and product composition analyses.
# For Example 89, the extraction solution phase separated in Example 88 was added to a clean 250 mL flask along with 30 mL of p-diisopropylbenzene and the mixture was stirred at 50° C. for 30 minutes, was allowed to stand at 50° C. for about 5 minutes to permit phase separation and then each phase was separated and analyzed for composition and rhodium concentration.
# For Example 90, the extraction solution separated in Example 89 was added to a clean 250 mL flask along with another 30 mL of p-diisopropylbenzene hydroformylation solvent. The mixture was agitated at 50° C. for thirty minutes, allowed to stand at 50° C. for 5 minutes to permit phase separation and each phase was analyzed for composition and rhodium concentration.
# This scheme would be useful in a counter-current extraction method for recycling recovered hydroformylation product solution as well as in using the olefinic feed to the reactor as a back extraction solvent for recovering soluble rhodium from the methanol/water extract.
# Example 91 was carried out using the procedure described in Examples 88. The flask was charged with 62 mL of a hydroformylation product solution (Reference Example 10) having a rhodium concentration 166 mg/L and containing 3.01 g of C9-enal, 12.69 g of C10-dial and 37.84 grams of p-diisopropylbenzene. Methanol (37 ml), water (16 ml) and 78 mg Na (as sodium 2-ethylhexanoate) were added to the flask. This mixture was stirred at 50° C. for 30 minutes and then allowed to stand for 5 minutes at 50° C. to permit phase separation. The hydroformylation product solution (organic) phase and the extraction solution phase were both sampled and analyzed for rhodium concentration. The 2 phases were drained into a clean, graduated addition funnel and the volumes of the two phases were measured. The volume of the organic layer was 43 mL and the extraction solution layer was 62 mL.
# For Example 92, the extraction solution phase produced in Example 91 was added to a clean, 250 mL flask along with 30 mL of p-diisopropylbenzene and the mixture was stirred at 50° C. for 30 minutes and then allowed to separate into two phases. The two phases were analyzed for rhodium concentration and composition. The mixture was drained into a clean addition funnel to separate the two phases. For Example 93, the extraction solution phase of Example 92 and 30 mL of 1,7-octadiene were added to a clean, 250 mL flask. This mixture was stirred at 50° C. for 30 minutes and then allowed to separate into two phases which were analyzed for rhodium concentration.
# The amounts (g) of C9-enal, C10-dial in the sample of hydroformylation product solution initially extracted and in the methanol/water extraction solutions resulting from Examples 91, 92 and 93 are given in Table XIII. The ratio given in Table XIII is the weight ratio of C10-dial:C9-enal. […]
# [3] = Example 88, initial extraction, sodium oleate
# [4] = Example 89, first back-extraction, p-diisopropylbenzene, 50° C.
# [5] = Example 90, second back-extraction, p-diisopropylbenzene, 50° C.
# [6] = Example 91, initial extraction, sodium 2-ethylhexanoate, 50° C.
# [7] = Example 92, back-extraction, p-diisopropylbenzene, 50° C.
# [8] = Example 94, initial extraction, no salt, 25° C.
# [9] = Example 95, back-extraction, p-diisopropylbenzene, 50° C.
structure (smiles),measurement,setting,value
"[Rh] [Rh, rhodium]",Rh Conc. in extraction solution phase,"[1]; Example 31, 50° C., Na 0",120 mg/L
same,Rh Conc. in extraction solution phase,"[1]; Example 32, Na 82 mg/L as 2-ethylhexanoate",54 mg/L
same,Rh Conc. in extraction solution phase,"[1]; Example 33, Na 164 mg/L as 2-ethylhexanoate",37 mg/L
same,Rh Conc. in extraction solution phase,"[1]; Example 34, Na 327 mg/L as 2-ethylhexanoate",28 mg/L
same,Rh Conc. in extraction solution phase,"[1]; Example 35, Na 653 mg/L as 2-ethylhexanoate",20 mg/L
same,Rh Conc. in extraction solution phase,"[1]; Example 36, Na 1307 mg/L as 2-ethylhexanoate",12 mg/L
same,Rh Conc. in extraction solution phase,"[1]; Example 37, 50° C., Na 0",56 mg/L
same,Rh Conc. in extraction solution phase,"[1]; Example 38, Na 82 mg/L as oleate",6 mg/L
same,Rh Conc. in extraction solution phase,"[1]; Example 39, Na 164 mg/L as oleate",5 mg/L
same,Rh Conc. in extraction solution phase,"[1]; Example 40, Na 327 mg/L as oleate",4 mg/L
same,Rh Conc. in extraction solution phase,"[1]; Example 41, Na 653 mg/L as oleate",4 mg/L
same,Rh Conc. in extraction solution phase,"[1]; Example 42, Na 1307 mg/L as oleate",3.6 mg/L
same,Rh Conc. in extraction solution phase,"[1]; Example 43, 50° C., Na 0",72 mg/L
same,Rh Conc. in extraction solution phase,"[1]; Example 44, Na 82 mg/L as n butyrate",39 mg/L
same,Rh Conc. in extraction solution phase,"[1]; Example 45, Na 164 mg/L as n butyrate",32 mg/L
same,Rh Conc. in extraction solution phase,"[1]; Example 46, Na 327 mg/L as n butyrate",25 mg/L
same,Rh Conc. in extraction solution phase,"[1]; Example 47, Na 653 mg/L as n butyrate",22 mg/L
same,Rh Conc. in extraction solution phase,"[1]; Example 48, Na 1307 mg/L as n butyrate",15 mg/L
same,Rh Conc. in extraction solution phase,"[1]; Example 49, methanol/water 37/27 mL, Na 0",18.6 mg/L
same,Rh Conc. in extraction solution phase,"[1]; Example 50, methanol/water 37/27 mL, Na 100 as oleate",2.6 mg/L
same,Rh Conc. in extraction solution phase,"[1]; Example 52, Ref. Ex. 1 (BISBI), MeOH:water 3:1, 50° C., Na 0",120 mg/L
same,Rh Conc. in extraction solution phase,"[1]; Example 53, Ref. Ex. 1 (BISBI), Na 82 mg/L",54 mg/L
same,Rh Conc. in extraction solution phase,"[1]; Example 54, Ref. Ex. 1 (BISBI), Na 164 mg/L",37 mg/L
same,Rh Conc. in extraction solution phase,"[1]; Example 55, Ref. Ex. 1 (BISBI), Na 327 mg/L",28 mg/L
same,Rh Conc. in extraction solution phase,"[1]; Example 56, Ref. Ex. 11 (TCHP), Na 0",7.6 mg/L
same,Rh Conc. in extraction solution phase,"[1]; Example 57, Ref. Ex. 11 (TCHP), Na 82 mg/L",5.2 mg/L
same,Rh Conc. in extraction solution phase,"[1]; Example 58, Ref. Ex. 11 (TCHP), Na 164 mg/L",2.6 mg/L
same,Rh Conc. in extraction solution phase,"[1]; Example 59, Ref. Ex. 11 (TCHP), Na 327 mg/L",1.4 mg/L
same,Rh Conc. in extraction solution phase,"[1]; Example 60, Ref. Ex. 12 (TBP), Na 0",6.2 mg/L
same,Rh Conc. in extraction solution phase,"[1]; Example 61, Ref. Ex. 12 (TBP), Na 82 mg/L",5.4 mg/L
same,Rh Conc. in extraction solution phase,"[1]; Example 62, Ref. Ex. 12 (TBP), Na 164 mg/L",5.6 mg/L
same,Rh Conc. in extraction solution phase,"[1]; Example 63, Ref. Ex. 12 (TBP), Na 327 mg/L",5.4 mg/L
same,Rh Conc. in extraction solution phase,"[1]; Example 64, Ref. Ex. 7 (TPP), Na 0",7.6 mg/L
same,Rh Conc. in extraction solution phase,"[1]; Example 65, Ref. Ex. 7 (TPP), Na 82 mg/L",2.0 mg/L
same,Rh Conc. in extraction solution phase,"[1]; Example 66, Ref. Ex. 7 (TPP), Na 164 mg/L",2.2 mg/L
same,Rh Conc. in extraction solution phase,"[1]; Example 67, Ref. Ex. 7 (TPP), Na 327 mg/L",1.8 mg/L
same,Rh Conc. in extraction solution phase,"[1]; Example 68, Ref. Ex. 13 (TOP), Na 0",1.2 mg/L
same,Rh Conc. in extraction solution phase,"[1]; Example 69, Ref. Ex. 13 (TOP), Na 82 mg/L",1.0 mg/L
same,Rh Conc. in extraction solution phase,"[1]; Example 70, Ref. Ex. 13 (TOP), Na 164 mg/L",< 1 mg/L
same,Rh Conc. in extraction solution phase,"[1]; Example 71, Ref. Ex. 13 (TOP), Na 327 mg/L",< 1 mg/L
same,Rh Conc. in extraction solution phase,"[1]; Example 72, Ref. Ex. 26 (BISBI, TPP), Na 0",30 mg/L
same,Rh Conc. in extraction solution phase,"[1]; Example 73, Ref. Ex. 26 (BISBI, TPP), Na 82 mg/L",10 mg/L
same,Rh Conc. in extraction solution phase,"[1]; Example 74, Ref. Ex. 26 (BISBI, TPP), Na 164 mg/L",8.2 mg/L
same,Rh Conc. in extraction solution phase,"[1]; Example 75, Ref. Ex. 26 (BISBI, TPP), Na 327 mg/L",6.8 mg/L
same,Rh Conc. in extraction solution phase,"[1]; Example 76, Ref. Ex. 27 (BISBI, TCHP), Na 0",10 mg/L
same,Rh Conc. in extraction solution phase,"[1]; Example 77, Ref. Ex. 27 (BISBI, TCHP), Na 82 mg/L",1.8 mg/L
same,Rh Conc. in extraction solution phase,"[1]; Example 78, Ref. Ex. 27 (BISBI, TCHP), Na 164 mg/L",2.8 mg/L
same,Rh Conc.,[1]; Example 79,< 1 mg [Rh] per liter
same,Rh Conc.,[1]; Example 80,< 1 mg [Rh] per liter
same,Rh Conc.,[1]; Example 81,3.0 mg [Rh] per liter
same,Rh Conc.,[1]; Example 82,< 1 mg [Rh] per liter
same,Rh Conc.,[1]; Example 83,2.0 mg [Rh] per liter
same,Rh Conc.,[1]; Example 84,< 1 mg [Rh] per liter
same,Rh Conc.,[1]; Example 85,< 1 mg [Rh] per liter
same,Rh Conc.,[1]; Example 86,< 1 mg [Rh] per liter
same,Rh Conc.,[1]; Example 87,1.2 mg [Rh] per liter
same,"Rhodium Concentration, Extraction Solution Phase",[2]; [3],5.2 mg Rh per liter
same,"Rhodium Concentration, Organic Phase",[2]; [3],235 mg Rh per liter
same,"Rhodium Concentration, Extraction Solution Phase",[2]; [4],1.6 mg Rh per liter
same,"Rhodium Concentration, Organic Phase",[2]; [4],7.2 mg Rh per liter
same,"Rhodium Concentration, Extraction Solution Phase",[2]; [5],1.0 mg Rh per liter
same,"Rhodium Concentration, Organic Phase",[2]; [5],1.2 mg Rh per liter
same,"Rhodium Concentration, Extraction Solution Phase",[2]; [6],6.2 mg Rh per liter
same,"Rhodium Concentration, Organic Phase",[2]; [6],216 mg Rh per liter
same,"Rhodium Concentration, Extraction Solution Phase",[2]; [7],1.0 mg Rh per liter
same,"Rhodium Concentration, Organic Phase",[2]; [7],7.0 mg Rh per liter
same,"Rhodium Concentration, Organic Phase","[2]; Example 93, back-extraction, 1,7-octadiene, 50° C.",< 1 mg Rh per liter
same,"Rhodium Concentration, Extraction Solution Phase","[2]; Example 93, back-extraction, 1,7-octadiene, 50° C., listed as Rhodium",< 1 mg Rh per liter
same,"Rhodium Concentration, Extraction Solution Phase","[2]; Example 93, back-extraction, 1,7-octadiene, 50° C., listed as rhodium",below detection limits
same,"Rhodium Concentration, Extraction Solution Phase",[2]; [8],37 mg Rh per liter
same,"Rhodium Concentration, Organic Phase",[2]; [8],195 mg Rh per liter
same,"Rhodium Concentration, Extraction Solution Phase",[2]; [9],33 mg Rh per liter
same,"Rhodium Concentration, Organic Phase",[2]; [9],24 mg Rh per liter

# — patent US5138101A, “Recovery of high-boiling aldehydes from rhodium-catalyzed hydroformylation processes” (Eastman Kodak Company, priority 1991, dated 1992)
